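Each compound was tested at five concentrations against cells in 96-well plates for 48 hours. TGI is the concentration that stops growth completely.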
Experiments:
Assay in all cases: DTP human tumour cell line panel, 48 h
MOLT-4 leukemia = system: MOLT-4 leukemia
U251 CNS = system: U251 CNS
HL-60(TB) leukemia = system: HL-60(TB) leukemia
IGROV1 ovarian = system: IGROV1 ovarian
SK-OV-3 ovarian = system: SK-OV-3 ovarian
DMS 273 small cell lung = system: DMS 273 small cell lung
OVCAR-4 ovarian = system: OVCAR-4 ovarian
HCC-2998 colon = system: HCC-2998 colon
HCT-116 colon = system: HCT-116 colon
M14 melanoma = system: M14 melanoma
LXFL 529 NSCLC = system: LXFL 529 NSCLC
SN12C renal = system: SN12C renal
CCRF-CEM leukemia = system: CCRF-CEM leukemia
ACHN renal = system: ACHN renal
SK-MEL-5 melanoma = system: SK-MEL-5 melanoma
KM12 colon = system: KM12 colon
SK-MEL-28 melanoma = system: SK-MEL-28 melanoma
SF-295 CNS = system: SF-295 CNS
NCI-H226 lung = system: NCI-H226 lung
RPMI-8226 leukemia = system: RPMI-8226 leukemia
TK-10 renal = system: TK-10 renal
DMS 114 small cell lung = system: DMS 114 small cell lung
LOX IMVI melanoma = system: LOX IMVI melanoma
SNB-19 CNS = system: SNB-19 CNS
K-562 leukemia = system: K-562 leukemia
SK-MEL-2 melanoma = system: SK-MEL-2 melanoma
SNB-78 CNS = system: SNB-78 CNS
A549 NSCLC = system: A549 NSCLC
KM20L2 colon = system: KM20L2 colon
HOP-18 NSCLC = system: HOP-18 NSCLC
OVCAR-3 ovarian = system: OVCAR-3 ovarian
SW-620 colon = system: SW-620 colon
HCT-15 colon = system: HCT-15 colon
OVCAR-8 ovarian = system: OVCAR-8 ovarian
SF-539 CNS = system: SF-539 CNS
HOP-92 NSCLC = system: HOP-92 NSCLC
SNB-75 CNS = system: SNB-75 CNS
HT29 colon = system: HT29 colon
EKVX NSCLC = system: EKVX NSCLC
DLD-1 colon = system: DLD-1 colon
COLO 205 colon = system: COLO 205 colon
NCI-H23 lung = system: NCI-H23 lung
M19-MEL melanoma = system: M19-MEL melanoma
UACC-62 melanoma = system: UACC-62 melanoma
UO-31 renal = system: UO-31 renal
MDA-MB-435 = system: MDA-MB-435
OVCAR-5 ovarian = system: OVCAR-5 ovarian
RXF 393 renal = system: RXF 393 renal
SF-268 CNS = system: SF-268 CNS
MALME-3M melanoma = system: MALME-3M melanoma
HS 578T breast = system: HS 578T breast
PC-3 prostate = system: PC-3 prostate
UACC-257 melanoma = system: UACC-257 melanoma
SR leukemia = system: SR leukemia
BT-549 breast = system: BT-549 breast
MDA-MB-231 breast = system: MDA-MB-231 breast
HOP-62 NSCLC = system: HOP-62 NSCLC
T-47D breast = system: T-47D breast
A498 renal = system: A498 renal
NCI-H522 lung = system: NCI-H522 lung
786-0 renal = system: 786-0 renal
NCI-H460 lung = system: NCI-H460 lung
CAKI-1 renal = system: CAKI-1 renal

## COc1nc(=O)n(COC(CO)CN2C(=O)c3ccccc3C2=O)cc1Cc1cccc(OCc2ccccc2)c1 (stereo not given)
MOLT-4 leukemia
  TGI: 49.4 µM
U251 CNS
  TGI: 51.8 µM
HL-60(TB) leukemia
  TGI: 41.8 µM
IGROV1 ovarian
  TGI: 58.8 µM
SK-OV-3 ovarian
  TGI: 90.6 µM
DMS 273 small cell lung
  TGI: 45.4 µM
OVCAR-4 ovarian
  TGI: 57.8 µM
HCC-2998 colon
  TGI: 43 µM
HCT-116 colon
  TGI: > 100 µM
M14 melanoma
  TGI: 43.6 µM
LXFL 529 NSCLC
  TGI: > 100 µM
SN12C renal
  TGI: 58.5 µM
CCRF-CEM leukemia
  TGI: 60.2 µM
ACHN renal
  TGI: 59.8 µM
SK-MEL-5 melanoma
  TGI: 30.5 µM
KM12 colon
  TGI: 91.3 µM
SK-MEL-28 melanoma
  TGI: 36.2 µM
SF-295 CNS
  TGI: 48.9 µM
NCI-H226 lung
  TGI: 54.2 µM
RPMI-8226 leukemia
  TGI: 42.3 µM
TK-10 renal
  TGI: > 100 µM
DMS 114 small cell lung
  TGI: 59.1 µM
LOX IMVI melanoma
  TGI: 41.5 µM
SNB-19 CNS
  TGI: > 100 µM
K-562 leukemia
  TGI: 60.1 µM
SK-MEL-2 melanoma
  TGI: 31.3 µM
SNB-78 CNS
  TGI: > 100 µM
A549 NSCLC
  TGI: 75.8 µM
KM20L2 colon
  TGI: 55.7 µM
HOP-18 NSCLC
  TGI: 72.5 µM
OVCAR-3 ovarian
  TGI: 58.9 µM
SW-620 colon
  TGI: > 100 µM
HCT-15 colon
  TGI: > 100 µM
OVCAR-8 ovarian
  TGI: > 100 µM
SF-539 CNS
  TGI: 34.2 µM
HOP-92 NSCLC
  TGI: 45.2 µM
SNB-75 CNS
  TGI: 46.2 µM
HT29 colon
  TGI: > 100 µM
EKVX NSCLC
  TGI: > 100 µM
DLD-1 colon
  TGI: > 100 µM
COLO 205 colon
  TGI: 37.4 µM
NCI-H23 lung
  TGI: > 100 µM
M19-MEL melanoma
  TGI: 45.2 µM
UACC-62 melanoma
  TGI: 28.5 µM
UO-31 renal
  TGI: 52.4 µM

## COc1cc2c(c(OC)c1OC)-c1ccc(SC)c(=O)cc1C(NC(=O)c1ccccc1)CC2 (stereo not given)
MOLT-4 leukemia
  TGI: 43.4 µM
U251 CNS
  TGI: 4.18 µM
HL-60(TB) leukemia
  TGI: < 0.0127 µM
MDA-MB-435
  TGI: < 0.01 µM
OVCAR-5 ovarian
  TGI: 58.7 µM
IGROV1 ovarian
  TGI: 49.6 µM
SK-OV-3 ovarian
  TGI: 1.94 µM
RXF 393 renal
  TGI: 7.88 µM
DMS 273 small cell lung
  TGI: > 40.6 µM
SF-268 CNS
  TGI: 53.3 µM
MALME-3M melanoma
  TGI: 32.7 µM
OVCAR-4 ovarian
  TGI: 22.2 µM
HCC-2998 colon
  TGI: 0.144 µM
HCT-116 colon
  TGI: 0.188 µM
M14 melanoma
  TGI: 30.3 µM
HS 578T breast
  TGI: 5.34 µM
PC-3 prostate
  TGI: > 31.6 µM
UACC-257 melanoma
  TGI: 18.4 µM
SR leukemia
  TGI: 27 µM
LXFL 529 NSCLC
  TGI: > 76.5 µM
BT-549 breast
  TGI: > 31.6 µM
SN12C renal
  TGI: 52.6 µM
CCRF-CEM leukemia
  TGI: > 68.1 µM
ACHN renal
  TGI: > 63.1 µM
SK-MEL-5 melanoma
  TGI: < 0.01 µM
KM12 colon
  TGI: 0.0357 µM
SK-MEL-28 melanoma
  TGI: > 63.1 µM
SF-295 CNS
  TGI: < 0.0133 µM
RPMI-8226 leukemia
  TGI: 52.5 µM
TK-10 renal
  TGI: 64.4 µM
LOX IMVI melanoma
  TGI: 62.2 µM
MDA-MB-231 breast
  TGI: 1.77 µM
SNB-19 CNS
  TGI: 29.1 µM
HOP-62 NSCLC
  TGI: 21.1 µM
K-562 leukemia
  TGI: > 68.1 µM
SK-MEL-2 melanoma
  TGI: < 0.215 µM
SNB-78 CNS
  TGI: > 90.9 µM
T-47D breast
  TGI: > 100 µM
A549 NSCLC
  TGI: 65.9 µM
A498 renal
  TGI: 0.435 µM
KM20L2 colon
  TGI: < 0.01 µM
HOP-18 NSCLC
  TGI: > 100 µM
OVCAR-3 ovarian
  TGI: < 0.01 µM
SW-620 colon
  TGI: 34.7 µM
OVCAR-8 ovarian
  TGI: 24.6 µM
SF-539 CNS
  TGI: 0.0922 µM
HOP-92 NSCLC
  TGI: 3.79 µM
SNB-75 CNS
  TGI: 4.01 µM
HT29 colon
  TGI: 1.12 µM
EKVX NSCLC
  TGI: > 100 µM
NCI-H522 lung
  TGI: < 0.0316 µM
786-0 renal
  TGI: 38.3 µM
DLD-1 colon
  TGI: > 100 µM
COLO 205 colon
  TGI: < 0.01 µM
NCI-H460 lung
  TGI: 1.62 µM
NCI-H23 lung
  TGI: 0.903 µM
M19-MEL melanoma
  TGI: > 100 µM
UACC-62 melanoma
  TGI: 36.7 µM
UO-31 renal
  TGI: > 68.1 µM
CAKI-1 renal
  TGI: 48.5 µM

From PubChem BioAssay (NCI)
